From PMC9557946, “Intermittent MEK inhibition for the treatment of metastatic uveal melanoma” (Frontiers in Oncology, 2022)
“And” between values parts separate entries of the source, which are not always exact repeats. Equal values may be shown once. Read-outs that look alike come from different tables or passages of the source.

Experiments:
uveal melanoma = tested on: uveal melanoma; parameters: method as in PMID 22550165; settings: ref [7], cited from earlier work
[1] = Phase Ib trial of intermittent selumetinib: adverse events, DLT and MTD; assay type: in vivo
Source text: This was a multi-center, open-label, phase Ib study conducted at Columbia University Irving Medical Center (New York, NY), University of Texas MD Anderson Cancer Center (Houston, TX), and Memorial Sloan Kettering Cancer Center (New York, NY). […] Exploratory objectives included pharmacodynamic (PD) assessment of target inhibition of the MEK pathway.
The MTD was estimated using the time to event continual reassessment method (TITE-CRM) with a target DLT rate of 0.25 ([17]). TITE-CRM was used as it allows use of partial information before a complete follow-up is achieved and allows for a longer toxicity evaluation window beyond the first cycle to account for late onset toxicities. As a result, trials can be conducted in a continuous fashion. […] Based on prior clinical data, the estimated MTD prior to conduct of the trial was DL2.
Descriptive statistics were used to report baseline characteristics of the study population. The observed rate and estimated rate of DLT were reported for each dose level along with the 90% probability interval. The number and percentage of patients with adverse events were summarized taking the highest grade and reported by grade for AEs that were at least possibly related to treatment. AEs with at prevalence of least 10% were reported separately. The overall response rate (ORR) was defined as a confirmed complete response (CR) or partial response (PR) according to RECIST 1.1 criteria ([18]) and reported by dose level. […] PFS was measured from date of enrollment until the date of progression or death, whichever occurred first. OS was defined as the time from the date of registration to the date of death by any cause.
Toxicity was graded using National Cancer Institute Common Terminology Criteria for Adverse Events (CTCAE v. 4.0). For recurrent adverse events (AEs), the highest reported grade per event per patient was assessed. The DLT observation period was 8 weeks from the initiation of treatment.

[2] = in vivo
Experimental: (§1) Non-compartmental analyses were performed on the data for day 1, 2, 15 and 17 using Winnonlin software (Phoenix Winnonlin 8.3.1.5014, Certara L.P., Princeton, NJ). […] Data were summarized per dose level and per occasion. Dose-exposure relationships were explored by plotting dose versus the various parameters. Accumulation was investigated using the AUC assessed at various days.

[3] = cited from earlier work
clinical = settings: human, in vivo
Experimental: as §1

pERK = experiment: Pharmacodynamic analysis of serial tumor biopsies (immunoblot, densitometry); assay type: in vivo, human
Experimental: Serial tumor biopsies were collected from patients at baseline, on day 3, and between days 11 and 14. Flash-frozen specimens were lysed in RIPA lysis buffer. Equal amounts of protein were loaded on 4-20% PAGE gels (Invitrogen) and analyzed by immunoblotting using antibodies for pERK, ERK, cyclin D1 and α-tubulin (Cell Signaling). Signals from secondary antibodies were detected using ECL (Pierce) and autoradiography films. Densitometry analysis of each band was performed using Photoshop C6 and normalized to tubulin expression.

[4] = related to study treatment, 29 patients, all dose levels

Structure (SMILES): Cn1cnc2c(F)c(Nc3ccc(Br)cc3Cl)c(C(=O)NOCCO)cc21 [selumetinib]
- median PFS (uveal melanoma; selumetinib 75 mg BID vs temozolomide or DTIC): 16 weeks
- patients achieving an objective radiographic response (uveal melanoma; selumetinib 75 mg BID): 14%
- increase of intermittent MTD over continuous dose MTD ([1]; 150 mg BID vs 75 mg BID): 100%
- patients requiring dose reduction for treatment-related toxicity ([1]; 29 patients, all dose levels): 21%
- patients who discontinued therapy due to toxicity ([1]; 29 patients, all dose levels): Five patients discontinued therapy due to toxicity
- patients with at least one treatment-related AE of any grade ([1]; 29 patients, all dose levels): All patients
- patients with grade 3 or higher treatment-related AE ([1]; 29 patients, all dose levels): 17%
- Observed DLTs ([1]; All dose levels, 29 patients): 5
- estimated probability of toxicity at the MTD ([1]; DL3 150 mg BID, 90% probability interval 16%-44%): 29%
- DLT Information ([1]; Dose Level 2 (125 mg BID)): • Grade 3 Hypertension • Grade 3 Abdominal pain
- Observed DLTs ([1]; Dose Level 2 (125 mg BID), 20 patients): 2/20 and 2
- DLT Information ([1]; Dose Level 3 (150 mg BID)): • Grade 3 Abdominal pain • Grade 3 AST elevation
- Observed DLTs ([1]; Dose Level 3 (150 mg BID), 5 patients): 2/5 and 2
- DLT Information ([1]; Dose Level 4 (175 mg BID)): • Grade 3 AST elevation
- Observed DLTs ([1]; Dose Level 4 (175 mg BID), 1 patient): 1/1 and 1
- most common grade 3 AE ([1]; all dose levels): abdominal pain
- treatment discontinuation associated with liver enzyme elevation ([1]; all dose levels): 2 n
- treatment discontinuation associated with retinopathy ([1]; all dose levels): 2 n
- patients who died within 30 days of treatment discontinuation ([1]; all from progression of disease): 4 patients
- Abdominal pain, All Grades [1, 4]: 12 (41%) patients (%)
- Abdominal pain, Grade 1 [1, 4]: 5 (17) n(%)
- Abdominal pain, Grade 2 [1, 4]: 4 (14) n(%)
- Abdominal pain, Grade 3 [1, 4]: 3 (10) n(%)
- Abdominal pain, Grade 4 [1, 4]: 0 n(%)
- Anemia, All Grades [1, 4]: 13 (45%) patients (%)
- Anemia, Grade 1 [1, 4]: 11 (38) n(%)
- Anemia, Grade 2 [1, 4]: 1 (3) n(%)
- Anemia, Grade 3 [1, 4]: 0 n(%)
- Anemia, Grade 4 [1, 4]: 1 (3) n(%)
- Constipation, All Grades [1, 4]: 10 (34%) patients (%)
- Constipation, Grade 1 [1, 4]: 8 (28) n(%)
- Constipation, Grade 2 [1, 4]: 2 (7) n(%)
- Constipation, Grade 3 [1, 4]: 0 n(%)
- Constipation, Grade 4 [1, 4]: 0 n(%)
- Decreased WBC, All Grades [1, 4]: 8 (28%) patients (%)
- Decreased WBC, Grade 1 [1, 4]: 5 (17) n(%)
- Decreased WBC, Grade 2 [1, 4]: 2 (7) n(%)
- Decreased WBC, Grade 3 [1, 4]: 1 (3) n(%)
- Decreased WBC, Grade 4 [1, 4]: 0 n(%)
- Diarrhea, All Grades [1, 4]: 16 (55%) patients (%)
- Diarrhea, Grade 1 [1, 4]: 14 (48) n(%)
- Diarrhea, Grade 2 [1, 4]: 2 (7) n(%)
- Diarrhea, Grade 3 [1, 4]: 0 n(%)
- Diarrhea, Grade 4 [1, 4]: 0 n(%)
- Fatigue, All Grades [1, 4]: 25 (86%) patients (%)
- Fatigue, Grade 1 [1, 4]: 19 (66) n(%)
- Fatigue, Grade 2 [1, 4]: 6 (21) n(%)
- Fatigue, Grade 3 [1, 4]: 0 n(%)
- Fatigue, Grade 4 [1, 4]: 0 n(%)
- Hypertension, All Grades [1, 4]: 14 (48%) patients (%)
- Hypertension, Grade 1 [1, 4]: 3 (10) n(%)
- Hypertension, Grade 2 [1, 4]: 9 (31) n(%)
- Hypertension, Grade 3 [1, 4]: 2 (7) n(%)
- Hypertension, Grade 4 [1, 4]: 0 n(%)
- Increased AST/ALT, All Grades [1, 4]: 12 (41%) patients (%)
- Increased AST/ALT, Grade 1 [1, 4]: 10 (34) n(%)
- Increased AST/ALT, Grade 2 [1, 4]: 0 n(%)
- Increased AST/ALT, Grade 3 [1, 4]: 2 (7) n(%)
- Increased AST/ALT, Grade 4 [1, 4]: 0 n(%)
- Nausea, All Grades [1, 4]: 17 (59%) patients (%)
- Nausea, Grade 1 [1, 4]: 12 (41) n(%)
- Nausea, Grade 2 [1, 4]: 5 (17) n(%)
- Nausea, Grade 3 [1, 4]: 0 n(%)
- Nausea, Grade 4 [1, 4]: 0 n(%)
- Pruritus, Grade 1 [1, 4]: 10 (34) n(%)
- Pruritus, Grade 2 [1, 4]: 0 n(%)
- Pruritus, Grade 3 [1, 4]: 0 n(%)
- Pruritus, Grade 4 [1, 4]: 0 n(%)
- Rash acneiform, All Grades [1, 4]: 19 (65%) patients (%)
- Rash acneiform, Grade 1 [1, 4]: 14 (48) n(%)
- Rash acneiform, Grade 2 [1, 4]: 5 (17) n(%)
- Rash acneiform, Grade 3 [1, 4]: 0 n(%)
- Rash acneiform, Grade 4 [1, 4]: 0 n(%)
- Retinopathy/Blurred Vision, All Grades [1, 4]: 8 (28%) patients (%)
- Retinopathy/Blurred Vision, Grade 1 [1, 4]: 8 (28) n(%)
- Retinopathy/Blurred Vision, Grade 2 [1, 4]: 0 n(%)
- Retinopathy/Blurred Vision, Grade 3 [1, 4]: 0 n(%)
- Retinopathy/Blurred Vision, Grade 4 [1, 4]: 0 n(%)
- Vomiting, All Grades [1, 4]: 8 (28%) patients (%)
- Vomiting, Grade 1 [1, 4]: 5 (17) n(%)
- Vomiting, Grade 2 [1, 4]: 3 (10) n(%)
- Vomiting, Grade 3 [1, 4]: 0 n(%)
- Vomiting, Grade 4 [1, 4]: 0 n(%)
- AUC0-4h ([2]; human, 100 mg): 2903 ± 461 (6) h*ng/mL
- AUC0-8h ([2]; human, 100 mg): 4265 ± 628 (2) h*ng/mL
- CL/F ([2]; human, 100 mg): 20.9 ± 3.7 (2) L/h
- Cmax ([2]; human, 100 mg): 1453 ± 530 (6) ng/mL
- Tmax ([2]; human, 100 mg): 1.7 ± 0.5 (6) h
- t½ ([2]; human, 100 mg): 2.4 ± 0.3 (2) h
- AUC0-4h ([2]; human, 125 mg): 4270 ± 1470 (56) h*ng/mL
- AUC0-8h ([2]; human, 125 mg): 6042 ± 2210 (29) h*ng/mL
- CL/F ([2]; human, 125 mg): 18.7 ± 8.1 (26) L/h
- Cmax ([2]; human, 125 mg): 2115 ± 798 (56) ng/mL
- intra-patient coefficient of variation for AUC0-8h ([2]; human, 125 mg): 11.3%
- intra-patient coefficient of variation for Cmax ([2]; human, 125 mg): 25.3%
- t½ ([2]; human, 125 mg): 4.3 ± 5.7 (26) h
- AUC0-4h ([2]; human, 150 mg): 6073 ± 1540 (8) h*ng/mL
- AUC0-8h ([2]; human, 150 mg): 6683 ± 729 (4) h*ng/mL
- CL/F ([2]; human, 150 mg): 14.8 ± 7.6 (8) L/h
- Cmax ([2]; human, 150 mg): 3041 ± 1155 (8) ng/mL
- t½ ([2]; human, 150 mg): 7.9 ± 9.1 (3) h
- accumulation [2]: little to no accumulation
- continuous dose MTD ([3]; continuous dosing schedule): 75 mg BID
- mean half-life ([3]; prior knowledge, no reference given): 5 to 8 h
- half-life (clinical): 4.3 h
- Tmax (clinical; po): ~1.7 h
- mean reduction in pERK expression (pERK; day 3 of first cycle (on treatment) vs baseline, n=9): 41.3%
- mean increase in pERK expression from day 3 (pERK; day 11-14, off-treatment window): 69.3%
- cases with at least partial pERK recovery (pERK; day 11-14 off treatment, of 9 patients): 7 cases
